Data taken from ChEMBL document CHEMBL4673317, “Linearolactone and Kaempferol Disrupt the Actin Cytoskeleton in Entamoeba histolytica: Inhibition of Amoebic Liver Abscess Development” (J Nat Prod, 2020).
Active and inactive are the calls of the source. No cut-off for these calls is given here.

Experiments:
Giardia intestinalis = experiment: Antigiardial activity against Giardia lamblia WB infected in ig dosed CD-1 mouse assessed as reduction in parasite growth after 8 days; format: functional; settings: Giardia duodenalis, po, 192 h, time 8 day
Entamoeba histolytica [1] = experiment: Antimicrobial activity against Entamoeba histolytica HM1:MMS assessed as reduction in amoeba growth; format: functional, organism-based; settings: HM-1:IMSS
Entamoeba histolytica [2] = experiment: Antimicrobial activity against Entamoeba histolytica […] trophozoites assessed as decrease in number of vacuoles at IC50 concentration after 48 hrs by uranyl acetate staining based TEM analysis; format: functional, organism-based; settings: HM-1:IMSS
Entamoeba histolytica [3] = experiment: Antimicrobial activity against Entamoeba histolytica […] trophozoites assessed as decrease in granularity at IC50 concentration after 48 hrs by uranyl acetate staining based TEM analysis; format: functional, organism-based; settings: HM-1:IMSS
Entamoeba histolytica [4] = experiment: Antimicrobial activity against Entamoeba histolytica […] trophozoites assessed as decrease in size of cells at IC50 concentration after 48 hrs by uranyl acetate staining based TEM analysis; format: functional, organism-based; settings: HM-1:IMSS
Entamoeba histolytica [5] = experiment: Antimicrobial activity against Entamoeba histolytica […] trophozoites assessed as abnormal condensation of chromatin at IC50 concentration after 48 hrs by uranyl acetate staining based TEM analysis; format: functional, organism-based; settings: HM-1:IMSS
Entamoeba histolytica [6] = experiment: Induction of ROS generation in Entamoeba histolytica […] trophozoites at IC50 concentration incubated for 1 hr by DCFDA staining based assay; format: functional, organism-based; settings: HM-1:IMSS
Entamoeba histolytica [7] = experiment: Induction of ROS generation in Entamoeba histolytica […] trophozoites at IC50 concentration incubated for 1 hr in presence of trolox by DCFDA staining based assay relative to control; format: functional, HM-1:IMSS
Entamoeba histolytica [8] = experiment: Antimicrobial activity against Entamoeba histolytica […] trophozoites infected in Syrian hamster assessed as total bilirubin level at 0.05 mg/kg, ip at 4 days post infection and measured on day 8 (reference value: 0.8 +/- 0.2 mg/dl); format: functional, HM-1:IMSS; settings: time 4 day
Entamoeba histolytica [9] = experiment: Antimicrobial activity against Entamoeba histolytica […] trophozoites infected in Syrian hamster assessed as inhibition of amoebic liver abscess at 0.5 mg/kg, ip at 4 days post infection and measured on day 8 by NMR analysis; format: functional, organism-based; settings: HM-1:IMSS, time 4.0 day
Entamoeba histolytica [10] = experiment: Induction of apoptosis in Entamoeba histolytica […] trophozoites assessed as viable cells at IC50 concentration after 48 hrs by annexin-V-FITC/propidium iodide staining based flow cytometric analysis (reference value: 98%); format: functional, HM-1:IMSS
Entamoeba histolytica [11] = experiment: Induction of apoptosis in Entamoeba histolytica […] trophozoites assessed as early apoptotic cells at IC50 concentration after 48 hrs by annexin-V-FITC/propidium iodide staining based flow cytometric analysis (reference value: 0.9%); format: functional, HM-1:IMSS
Entamoeba histolytica [12] = experiment: Induction of apoptosis in Entamoeba histolytica […] trophozoites assessed as late apoptotic cells at IC50 concentration after 48 hrs by annexin-V-FITC/propidium iodide staining based flow cytometric analysis (reference value: 0.7%); format: functional, HM-1:IMSS
Entamoeba histolytica [13] = experiment: Induction of apoptosis in Entamoeba histolytica […] trophozoites assessed as necrotic cells at IC50 concentration after 48 hrs by annexin-V-FITC/propidium iodide staining based flow cytometric analysis (reference value: 0.4%); format: functional, HM-1:IMSS
Entamoeba histolytica [14] = experiment: Antimicrobial activity against Entamoeba histolytica […] trophozoites infected in Syrian hamster assessed as urea level at 0.05 mg/kg, ip at 4 days post infection and measured on day 8 (reference value: 14 +/- 1 mg/dl); format: functional, HM-1:IMSS; settings: time 4 day
Entamoeba histolytica [15] = experiment: Antimicrobial activity against Entamoeba histolytica […] trophozoites infected in Syrian hamster assessed as inhibition of amoebic liver abscess by abundant monocytes at 0.5 mg/kg, ip at 4 days post infection and measured on day 8 by H and E staining based microscopic method; format: functional, organism-based; settings: HM-1:IMSS, time 4.0 day
Entamoeba histolytica [16] = experiment: Antimicrobial activity against Entamoeba histolytica […] trophozoites infected in Syrian hamster assessed as inhibition of amoebic liver abscess by measuring edema at 0.5 mg/kg, ip at 4 days post infection and measured on day 8 by H and E staining based microscopic method; format: functional, organism-based; settings: HM-1:IMSS, time 4.0 day
Entamoeba histolytica [17] = experiment: Antimicrobial activity against Entamoeba histolytica […] trophozoites infected in Syrian hamster assessed as inhibition of amoebic liver abscess by measuring vascular congestion at 0.5 mg/kg, ip at 4 days post infection and measured on day 8 by H and E staining based microscopic method; format: functional, organism-based; settings: HM-1:IMSS, time 4.0 day
Entamoeba histolytica [18] = experiment: Binding affinity to Entamoeba histolytica […] trophozoites actin assessed as induction of polarization of polymerized actin at IC50 concentration incubated for 1 hrs by […] staining based confocal microscopic analysis
Entamoeba histolytica [19] = experiment: Antimicrobial activity against Entamoeba histolytica […] trophozoites infected in Syrian hamster assessed as ALP level at 0.05 mg/kg, ip at 4 days post infection and measured on day 8 (reference value: 638 +/- 50 U/L); format: functional, HM-1:IMSS; settings: time 4 day
Entamoeba histolytica [20] = experiment: Antimicrobial activity against Entamoeba histolytica […] trophozoites infected in Syrian hamster assessed as ALT level at 0.05 mg/kg, ip at 4 days post infection and measured on day 8 (reference value: 276 +/- 24 U/L); format: functional, HM-1:IMSS; settings: time 4 day
Entamoeba histolytica [21] = experiment: Antimicrobial activity against Entamoeba histolytica […] trophozoites infected in Syrian hamster assessed as triglycerides level at 0.05 mg/kg, ip at 4 days post infection and measured on day 8 (reference value: 395 +/- 41 mg/dl); format: functional, HM-1:IMSS; settings: time 4 day
Entamoeba histolytica [22] = experiment: Antimicrobial activity against Entamoeba histolytica […] trophozoites infected in Syrian hamster assessed as blood ureic nitrogen level at 0.05 mg/kg, ip at 4 days post infection and measured on day 8 (reference value: […]); format: functional, HM-1:IMSS; settings: time 4 day
Entamoeba histolytica [23] = experiment: Antimicrobial activity against Entamoeba histolytica […] trophozoites infected in Syrian hamster assessed as creatinine level at 0.05 mg/kg, ip at 4 days post infection and measured on day 8 (reference value: 0.9 +/- 0.06 mg/dl); format: functional, HM-1:IMSS; settings: time 4 day
Entamoeba histolytica [24] = experiment: Antimicrobial activity against Entamoeba histolytica […] trophozoites infected in Syrian hamster assessed as total leukocytes at 0.05 mg/kg, ip at 4 days post infection and measured on day 8 (reference value: 18 +/- 16 […]/mm3); format: functional, HM-1:IMSS; settings: time 4 day
Entamoeba histolytica [25] = experiment: Antimicrobial activity against Entamoeba histolytica […] trophozoites infected in Syrian hamster assessed as platelets at 0.05 mg/kg, ip at 4 days post infection and measured on day 8 (reference value: 439 +/- 108 […]); format: functional, HM-1:IMSS; settings: time 4 day
Entamoeba histolytica [26] = experiment: Antimicrobial activity against Entamoeba histolytica […] trophozoites infected in Syrian hamster assessed as glucose level at 0.05 mg/kg, ip at 4 days post infection and measured on day 8 (reference value: 126 +/- 18 mg/dl); format: functional, HM-1:IMSS; settings: time 4 day
BEAS-2B = experiment: Cytotoxicity against human BEAS-2B cells assessed as reduction in cell viability after 24 hrs by MTT assay; format: cell-based
CHO-K1 = experiment: Cytotoxicity against CHO-K1 cells assessed as reduction in cell viability after 24 hrs by MTT assay; format: cell-based; settings: Cricetulus griseus, CHO-K1, 24 h

Question: Which results are given for `O=c1c(O)c(-c2ccc(O)cc2)oc2cc(O)cc(O)c12` [KAEMPFEROL]?
Answer: ED50 (Giardia intestinalis): 2.06 µmol/kg; IC50 (Entamoeba histolytica [1]): 0.23 µM; Activity (Entamoeba histolytica [2]): Active; Activity (Entamoeba histolytica [3]): Active; Activity (Entamoeba histolytica [4]): Active; Activity (Entamoeba histolytica [5]): Active; Activity (Entamoeba histolytica [6]): Active; Activity (Entamoeba histolytica [7]): 33.36%; Activity (Entamoeba histolytica [8]): 0.4 mg/dL; inhibition (Entamoeba histolytica [9]): Active; Activity (Entamoeba histolytica [10]): 87.3%; Activity (Entamoeba histolytica [11]): 4.2%; Activity (Entamoeba histolytica [12]): 6.1%; Activity (Entamoeba histolytica [13]): 2.4%; Activity (Entamoeba histolytica [14]): 42 mg/dL; inhibition (Entamoeba histolytica [15]): Active; inhibition (Entamoeba histolytica [16]): Active; inhibition (Entamoeba histolytica [17]): Active; Activity (Entamoeba histolytica [18]): Active; Activity (Entamoeba histolytica [19]): 348 U/L; Activity (Entamoeba histolytica [20]): 55 U/L; Activity (Entamoeba histolytica [21]): 442 mg/dL; Activity (Entamoeba histolytica [22]): 19 mg/dL; Activity (Entamoeba histolytica [23]): 0.5 mg/dL; Activity (Entamoeba histolytica [24]): 19 thousand/mm3; Activity (Entamoeba histolytica [25]): 679 thousand/mm3; Activity (Entamoeba histolytica [26]): 58 mg/dL; IC50 (BEAS-2B): 350 µM; IC50 (CHO-K1): 240 µM
